“Also recorded” adds a separate entry of the source.
Legend:
[1] = test system: wild-type and CAR −/− mice; conditions: acute treatment (Heubel et al.); cited from earlier work
murine CAR receptor = molecular target: T1, murine CAR receptor (Mus musculus, UniProt O35627, M138L); conditions: cited from earlier work
T1 sequence (O35627 1-358 M138L): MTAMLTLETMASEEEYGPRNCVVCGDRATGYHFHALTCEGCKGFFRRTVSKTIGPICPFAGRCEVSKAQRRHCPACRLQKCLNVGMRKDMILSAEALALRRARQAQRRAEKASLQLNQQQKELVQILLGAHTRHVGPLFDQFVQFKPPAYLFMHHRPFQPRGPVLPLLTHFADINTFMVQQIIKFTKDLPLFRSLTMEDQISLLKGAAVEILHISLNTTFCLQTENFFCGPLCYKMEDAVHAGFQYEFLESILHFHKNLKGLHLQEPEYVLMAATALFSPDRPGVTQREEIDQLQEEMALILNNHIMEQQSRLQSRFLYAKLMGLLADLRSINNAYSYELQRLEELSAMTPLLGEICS

[2] = test system: wild-type and CAR −/− mice; test: Liver enlargement (liver mass relative to body weight); type: in vivo, mouse; conditions: for hyperplasia or hypertrophy in the liver: CAR knockout mice; for liver mass: three days of treatment
Procedure: FIG. 3A is a bar graph showing the liver enlargement and hepatocyte proliferation by PB or TCPOBOP. Mice (8–10 weeks old) were treated with PB or TCPOBOP for 3 days, and then both liver mass and body weight were measured. The data is presented as percentage of liver mass relative to total body weight.
This hepatomegaly is thought to be a reflection of both cellular hypertrophy and mitogenesis.

human CAR [3] = molecular target: T2, human CAR (Homo sapiens, UniProt Q14994); test: Sensitivity of CAR humanized mice to APAP, serum ALT; parameters: expressed in transfected cells; host or cells: liver of transgenic C57BL/6 mice (line 6210, albumin promoter), crossed onto the murine CAR -/- background; conditions: CAR humanized mice pretreated three days, APAP 250 mg/kg
T2 sequence (Q14994 1-348 isoform Q14994-2): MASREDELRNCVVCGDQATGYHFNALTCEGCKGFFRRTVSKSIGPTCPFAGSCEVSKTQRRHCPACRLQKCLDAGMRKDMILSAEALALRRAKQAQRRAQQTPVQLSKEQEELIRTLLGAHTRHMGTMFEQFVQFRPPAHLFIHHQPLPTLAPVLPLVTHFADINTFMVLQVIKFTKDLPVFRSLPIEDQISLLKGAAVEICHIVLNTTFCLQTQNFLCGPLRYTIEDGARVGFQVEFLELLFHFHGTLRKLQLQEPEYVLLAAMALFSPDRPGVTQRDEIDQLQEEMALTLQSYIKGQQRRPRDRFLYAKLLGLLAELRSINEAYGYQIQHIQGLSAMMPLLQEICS
Procedure: FIG. 13 illustrates the sensitivity of CAR humanized mice to APAP. CAR humanized mice (n=3) were pretreated with phenobarbital (PB) or vehicle alone for three days and administered a 250 mg/kg dose of APAP by intraperitoneal injection. Serum was collected and alanine aminotransferase (ALT) levels were measured after 24 hours.

human CAR [4] = molecular target: T2, human CAR; test: Northern blot of gene induction in CAR humanized mice; conditions: CAR humanized animals
Procedure: CAR humanized mice (n=3) were treated with 500 mg/kg APAP or vehicle. After two hours, total liver RNA was prepared and subjected to Northern blot analysis with indicated probes.

| SMILES | increase in liver mass relative to total body mass [1] | activity on murine CAR receptor (murine CAR receptor) | hyperplasia or hypertrophy in the liver [2] | liver mass ([2]; CAR −/− mice) | liver mass ([2]; wild-type mice) | sensitivity to APAP (human CAR [3]) | expression of CYP1A2 and CYP3A11 mRNAs (human CAR [4]) |
| --- | --- | --- | --- | --- | --- | --- | --- |
| Clc1cnc(Oc2ccc(Oc3ncc(Cl)cc3Cl)cc2)c(Cl)c1 [TCPOBOP, 1,4-bis[2-(3,5-dichloropyridyloxy)]benzene] | up to 2 fold | agonist ligand; also recorded: activate murine CAR | not detected | did not show any evidence of increased liver mass | increase in liver mass | – | – |
| CCC1(c2ccccc2)C(=O)NC(=O)NC1=O [PB, phenobarbital] | – | – | not detected | did not show any evidence of increased liver mass | increase in liver mass | increased sensitivity to APAP | induced expression |

Source: patent US7186879B2, “Screening systems and methods for identifying modulators of xenobiotic metabolism” (Baylor College of Medicine, priority 2001, dated 2007)
